Reference: the supplement of paper PMC10307832

Experiments:
Experiment in all cases: relative viability (nuclei count vs DMSO), 5 days (fraction); higher = more cells survive
[1] = compound: C#Cc1cccc(Nc2ncnc3cc(OCCOC)c(OCCOC)cc23)c1 [Erlotinib] + CS(=O)(=O)CCNCc1ccc(-c2ccc3ncnc(Nc4ccc(OCc5cccc(F)c5)c(Cl)c4)c3c2)o1 [Lapatinib] (partner 2 µM)
Summary of the method: (§1)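 Relative viability was taken as the ratio of nuclei in treated wells to nuclei in vehicle wells. Lung cancer cell lines in 1536-well plates received compounds by pin tool one day after seeding, either one drug alone or a fixed anchor-drug dose plus five library-drug doses (not always all listed) in √10 steps. Nuclei were counted on 4× images after 5 days of treatment, and values are medians of duplicate plates.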

[2] = compound: O=C(Nc1c[nH]nc1-c1nc2ccc(CN3CCOCC3)cc2[nH]1)NC1CC1 [AT9283] + CC(=O)Nc1cccc(-n2c(=O)n(C3CC3)c(=O)c3c(Nc4ccc(I)cc4F)n(C)c(=O)c(C)c32)c1 [Trametinib] (partner 0.02 µM)
Summary of the method: as §1

[3] = compound: O=C(Nc1c[nH]nc1-c1nc2ccc(CN3CCOCC3)cc2[nH]1)NC1CC1 [AT9283] + Cc1cc(Nc2cc(N3CCN(C)CC3)nc(Sc3ccc(NC(=O)C4CC4)cc3)n2)n[nH]1 [Tozasertib] (partner 0.1 µM)
Summary of the method: as §1

[4] = compound: O=C(Nc1c[nH]nc1-c1nc2ccc(CN3CCOCC3)cc2[nH]1)NC1CC1 [AT9283] + Nc1nc2[nH]cc(CCc3ccc(C(=O)N[C@@H](CCC(=O)O)C(=O)O)cc3)c2c(=O)[nH]1 [Pemetrexed] (partner 0.2 µM)
Summary of the method: as §1

[5] = compound: O=C(Nc1c[nH]nc1-c1nc2ccc(CN3CCOCC3)cc2[nH]1)NC1CC1 [AT9283] + COc1cc2c(Oc3ccc(NC(=O)C4(C(=O)Nc5ccc(F)cc5)CC4)cc3F)ccnc2cc1OCCCN1CCOCC1 [Foretinib] (partner 0.25 µM)
Summary of the method: as §1

| Cell Line | relative viability ([1]; first compound 0.02 µM) | relative viability ([1]; first compound 0.2 µM) | relative viability ([1]; first compound 0.6325 µM) | relative viability ([1]; first compound 2 µM) | relative viability ([2]; first compound 0.003 µM) | relative viability ([2]; first compound 0.03 µM) | relative viability ([2]; first compound 0.09487 µM) | relative viability ([2]; first compound 0.3 µM) | relative viability ([3]; first compound 0.003 µM) | relative viability ([3]; first compound 0.03 µM) | relative viability ([3]; first compound 0.09487 µM) | relative viability ([3]; first compound 0.3 µM) | relative viability ([4]; first compound 0.003 µM) | relative viability ([4]; first compound 0.03 µM) | relative viability ([4]; first compound 0.09487 µM) | relative viability ([4]; first compound 0.3 µM) | relative viability ([5]; first compound 0.003 µM) | relative viability ([5]; first compound 0.03 µM) | relative viability ([5]; first compound 0.09487 µM) | relative viability ([5]; first compound 0.3 µM) |
| --- | --- | --- | --- | --- | --- | --- | --- | --- | --- | --- | --- | --- | --- | --- | --- | --- | --- | --- | --- | --- |
| NCI-H1650 | 0.705 | 0.728 | 0.899 | 0.828 | 0.604 | 0.545 | 0.399 | 0.179 | 0.386 | 0.328 | 0.36 | 0.35 | 0.358 | 0.362 | 0.361 | 0.28 | 1.2 | 0.985 | 0.46 | 0.327 |
| NCI-H1651 | 0.906 | 0.693 | 1.02 | 0.768 | 0.838 | 0.875 | 0.819 | 0.39 | 0.699 | 0.638 | 0.506 | 0.316 | 0.48 | 0.506 | 0.528 | 0.378 | 0.837 | 0.779 | 0.638 | 0.396 |
| NCI-H1666 | 0.714 | 0.552 | 0.698 | 0.699 | 0.852 | 0.721 | 0.637 | 0.474 | 0.671 | 0.479 | 0.428 | 0.43 | 0.775 | 0.818 | 0.718 | 0.612 | 1.01 | 0.725 | 0.534 | 0.496 |
| NCI-H1734 | 1.15 | 1.02 | 1.3 | 1 | 0.7 | 0.406 | 0.267 | 0.271 | 0.255 | 0.249 | 0.233 | 0.186 | 0.384 | 0.404 | 0.326 | 0.228 | 0.904 | 0.309 | 0.334 | 0.246 |
| NCI-H1755 | – | 1.06 | 1.09 | 1.02 | 0.8 | 0.815 | 0.637 | 0.557 | 0.624 | 0.469 | 0.419 | 0.367 | 0.438 | 0.415 | 0.361 | 0.301 | 0.871 | 0.755 | 0.559 | 0.496 |
| NCI-H1793 | – | 0.517 | 0.916 | 0.591 | 0.389 | 0.342 | 0.292 | 0.259 | 0.327 | 0.383 | 0.201 | 0.171 | 0.876 | 1.07 | 0.355 | 0.306 | 0.729 | 0.484 | 0.256 | 0.219 |
| NCI-H1915 | 1.01 | 0.987 | – | 0.992 | 0.3 | 0.31 | 0.225 | 0.132 | 0.347 | 0.3 | 0.195 | 0.179 | 0.547 | 0.431 | 0.326 | 0.254 | 1.04 | 0.995 | 0.451 | 0.256 |
| NCI-H1944 | 0.79 | 0.65 | 1.05 | 0.816 | 0.408 | 0.307 | 0.196 | 0.206 | 0.256 | 0.257 | 0.23 | 0.224 | 0.627 | 0.5 | 0.232 | 0.191 | 0.821 | 0.373 | 0.267 | 0.254 |
